The record followed here is patent US4022895A, “Substituted phenylglycylcephalosporins” (SmithKline Corporation, priority 1975, dated 1977).

Values after ≈ are worked out from the molar mass of the structure shown. Like-named read-outs stand apart in the source and are kept apart here.

One experiment concerns Kleb. pneumo. SK 4200. The experiment can be described thus: In vitro antibacterial activity (MIC). The class given is cell-based. The conditions noted are these: Kleb. pneumo. SK 4200, in vitro; read-out: MIC. As for the experimental part: (§1) The compounds of this invention have antibacterial activity against Gram-positive and Gram-negative organisms. Minimum inhibitory concentrations (MIC's) ranged from 0.4 to >200 μg/ml in in vitro testing.

Another experiment concerns Strep. faecalis HH 34358. Put plainly: In vitro antibacterial activity (MIC). The class given is cell-based. The conditions noted are these: Enterococcus faecalis, HH34358; Strep. faecalis HH 34358, in vitro. The protocol: as §1
The next experiment relates to S.aureus SK 23390. Put plainly: In vitro antibacterial activity (MIC). The conditions noted are these: Staphylococcus aureus, SK23390. The class given is cell-based. The protocol:
as §1

Another experiment relates to Kleb. pneumo. SK 1200. The experiment can be described thus: In vitro antibacterial activity (MIC). It counts as cell-based. The protocol: as §1
For experiment [1], the system named is Sal. paratyphl ATCC 12176. Put plainly: In vitro antibacterial activity (MIC). It counts as cell-based. The protocol: as §1
The next experiment deals with Shig. paradys HH 112. Put plainly: In vitro antibacterial activity (MIC). The class given is cell-based. The protocol: as §1
A further experiment has as its system S.aureus HH 127. Put plainly: In vitro antibacterial activity (MIC). The conditions noted are these: Staphylococcus aureus, HH127; S.aureus HH 127, in vitro; read-out: MIC. It counts as cell-based. The protocol: as §1
A further experiment deals with E.coli SK 12140. Put plainly: In vitro antibacterial activity (MIC). It counts as cell-based. The note with it: Escherichia coli, SK12140. The protocol: as §1
For the next experiment, the system named is S.aureus Villaluz. Put plainly: In vitro antibacterial activity (MIC). It counts as cell-based. The conditions noted are these: Staphylococcus aureus. The protocol: as §1
In experiment [2] the test system is Entero. aerog. ATCC 13048. Put plainly: In vitro antibacterial activity (MIC). The class given is cell-based. The note with it: Entero. aerog. ATCC 13048, in vitro; read-out: MIC. As for the experimental part:
as §1

In the next experiment the test system is E. coli HH 33779. The experiment can be described thus: In vitro antibacterial activity (MIC). The note with it: Escherichia coli, HH33779; E. coli HH 33779, in vitro; read-out: MIC. It counts as cell-based. The protocol:
as §1

A further experiment concerns Klebs.pneumo. 4200. The experiment can be described thus: In vivo activity (ED50) against Klebs.pneumo. 4200. The conditions noted are these: read-out: ED50.
The subject of a further experiment is E.coli 12140. Put plainly: In vivo activity (ED50) against E.coli 12140.
In the next experiment the test system is Proteus morgani 179. The experiment can be described thus: In vitro antibacterial activity (MIC). The class given is cell-based. The conditions noted are these: Proteus morgani 179, in vitro; read-out: MIC. As for the experimental part: as §1
[3] abbreviates: S.aureus SK 23390, in vitro, read-out: MIC.
Where [4] appears, read: Shig. paradys HH 112, in vitro, read-out: MIC.
The mark [5] stands for this setting: Escherichia coli, 12140, sc, E.coli 12140, s.c.
Where [6] appears, read: Kleb. pneumo. SK 1200, in vitro, read-out: MIC.
Where [7] appears, read: E.coli SK 12140, in vitro, read-out: MIC.
The mark [8] stands for this setting: Escherichia coli, 12140, po, E.coli 12140, p.o.

For orientation: MIC means the lowest concentration found to suppress growth. As usually defined, the ED50 is the midpoint of the dose-response relation. As for `Cc1nnc(SCC2=C(C(=O)O)N3C(=O)C(NC(=O)C(N)c4ccc(OCC(=O)O)cc4)C3SC2)s1` (stereo not drawn) [*59216], the minimum inhibitory concentration (MIC) in the experiment on Kleb. pneumo. SK 4200 was 1.6 to 6.3 µg/mL (≈ 2.9 to 11.4 µM); in the experiment with Strep. faecalis HH 34358, 50 to 200 µg/mL (≈ 90.6 to 363 µM); in the experiment with S.aureus SK 23390 (setting [3]), 100 to 200 µg/mL (≈ 181 to 363 µM); with Kleb. pneumo. SK 1200, 3.1 to 12.5 µg/mL (≈ 5.62 to 22.7 µM); in experiment [1], 3.1 to 12.5 µg/mL (≈ 5.62 to 22.7 µM); in the experiment on Shig. paradys HH 112 (setting [4]) it was 1.6 to 12.5 µg/mL (≈ 2.9 to 22.7 µM). Besides, the MIC in the experiment with S.aureus HH 127 was 6.3 to 25 µg/mL (≈ 11.4 to 45.3 µM); with E.coli SK 12140 it was 3.1 to 12.5 µg/mL (≈ 5.62 to 22.7 µM); with S.aureus Villaluz, 100 to 200 µg/mL (≈ 181 to 363 µM); in experiment [2] it was 12.5 to 50 µg/mL (≈ 22.7 to 90.6 µM); in the experiment with E. coli HH 33779, 6.3 to 25 µg/mL (≈ 11.4 to 45.3 µM). Further, the 50% effective dose (ED50) stood at 29 mg/kg with Klebs.pneumo. 4200 (po, Klebs.pneumo. 4200, p.o.) and 6.2 mg/kg in the experiment on E.coli 12140 (setting [5]).

Regarding `Cc1nnc(SCC2=C(C(=O)O)N3C(=O)C(NC(=O)C(N)c4ccc(OCC(N)=O)cc4)C3SC2)s1` (stereo not drawn) [*71816], the minimal inhibitory concentration (MIC) in the experiment with Kleb. pneumo. SK 4200 is 25 µg/mL (≈ 45.4 µM); in the experiment with Strep. faecalis HH 34358, 200 µg/mL (≈ 363 µM); in the experiment with S.aureus SK 23390 it was 12.5 µg/mL (≈ 22.7 µM); in the experiment with Kleb. pneumo. SK 1200 (setting [6]), 50 µg/mL (≈ 90.8 µM); in [1], 12.5 µg/mL (≈ 22.7 µM); in the experiment on Shig. paradys HH 112 (setting [4]), 12.5 µg/mL (≈ 22.7 µM). For the same molecule, the MIC came out at 25 µg/mL (≈ 45.4 µM) with S.aureus HH 127; 50 µg/mL (≈ 90.8 µM) with E.coli SK 12140 (setting [7]); 100 µg/mL (≈ 182 µM) against S.aureus Villaluz; 100 µg/mL (≈ 182 µM) in experiment [2]; 50 µg/mL (≈ 90.8 µM) in the experiment on E. coli HH 33779. The 50% effective dose (ED50) in the experiment on Klebs.pneumo. 4200 (po, Klebs.pneumo. 4200, p.o.) worked out at 13.7 mg/kg; with Klebs.pneumo. 4200 (sc, Klebs.pneumo. 4200, s.c.), 11.5 mg/kg; in the experiment with E.coli 12140 (setting [8]), 21.5 mg/kg; in the experiment on E.coli 12140 (setting [5]), 13.7 mg/kg.

Turning to `COC(=O)COc1ccc([C@@H](N)C(=O)NC2C(=O)N3C(C(=O)O)=C(C)CSC23)cc1` (stereo partly drawn) [Compound No. 07826, 7-[D-α-Amino-α-(4'-carbomethoxymethoxyphenyl)acetamido]-3-desacetoxycephalosporanic acid], the minimal inhibitory concentration (MIC) in the experiment with Kleb. pneumo. SK 4200 came out at 100 µg/mL (≈ 230 µM); against Strep. faecalis HH 34358 it was 100 µg/mL (≈ 230 µM); in the experiment on S.aureus SK 23390 (setting [3]), 6.3 µg/mL (≈ 14.5 µM); in the experiment on Kleb. pneumo. SK 1200 (setting [6]), 100 µg/mL (≈ 230 µM); in experiment [1], 50 µg/mL (≈ 115 µM); in the experiment with Shig. paradys HH 112 (setting [4]) it was 50 µg/mL (≈ 115 µM). The MIC in the experiment on S.aureus HH 127 is 6.3 µg/mL (≈ 14.5 µM); in the experiment with E.coli SK 12140 (setting [7]), 100 µg/mL (≈ 230 µM); against S.aureus Villaluz, 200 µg/mL (≈ 459 µM); in experiment [2], above 200 µg/mL; in the experiment with E. coli HH 33779, above 200 µg/mL.

Take `COC(=O)COc1ccc([C@@H](N)C(=O)NC2C(=O)N3C(C(=O)O)=C(CSc4c[nH]nn4)CSC23)cc1` (stereo partly drawn) [Compound No. 19736, 7-[D-α-Amino-α-(4'-carbomethoxymethoxyphenyl)acetamido]-3-(1,2,3-triazol-4-ylthiomethyl)-3-cephem-4-carboxylic acid]: the MIC in the experiment on Kleb. pneumo. SK 4200 is 50 µg/mL (≈ 93.5 µM); in the experiment with Strep. faecalis HH 34358, 100 µg/mL (≈ 187 µM); with S.aureus SK 23390 (setting [3]), 12.5 µg/mL (≈ 23.4 µM); with Kleb. pneumo. SK 1200 (setting [6]) it was 50 µg/mL (≈ 93.5 µM); in [1], 25 µg/mL (≈ 46.8 µM); in the experiment with Shig. paradys HH 112 (setting [4]) it was 25 µg/mL (≈ 46.8 µM). In addition, the minimum inhibitory concentration (MIC) with S.aureus HH 127 was 12.5 µg/mL (≈ 23.4 µM); in the experiment with E.coli SK 12140 (setting [7]), 50 µg/mL (≈ 93.5 µM); against S.aureus Villaluz, 200 µg/mL (≈ 374 µM); in the experiment with Proteus morgani 179, above 200 µg/mL; in experiment [2], above 200 µg/mL; in the experiment on E. coli HH 33779 it was 100 µg/mL (≈ 187 µM). Moreover, the 50% effective dose (ED50) with E.coli 12140 (setting [8]) is 25 mg/kg; in the experiment with E.coli 12140 (setting [5]) it was 34 mg/kg.

For the molecule `COC(=O)COc1ccc([C@@H](N)C(=O)NC2C(=O)N3C(C(=O)O)=C(CSc4nnnn4C)CSC23)cc1` (stereo partly drawn) [Compound No. 26436, 7-[D-α-Amino-α-(4'-carbomethoxymethoxyphenyl)acetamido]-3-(1-methyl-1,2,3,4-tetrazol-5-ylthiomethyl)-3-cephem-4-carboxylic acid], the minimal inhibitory concentration (MIC) in the experiment on Kleb. pneumo. SK 4200 turned out to be 6.3 µg/mL (≈ 11.5 µM); in the experiment with Strep. faecalis HH 34358, 50 µg/mL (≈ 91 µM); in the experiment with S.aureus SK 23390 (setting [3]), 6.3 µg/mL (≈ 11.5 µM); in the experiment on Kleb. pneumo. SK 1200 (setting [6]) it was 6.3 µg/mL (≈ 11.5 µM); in [1], 3.1 µg/mL (≈ 5.64 µM); against Shig. paradys HH 112, 6.5 µg/mL (≈ 11.8 µM). The MIC in the experiment on S.aureus HH 127 was 6.3 µg/mL (≈ 11.5 µM); with E.coli SK 12140 (setting [7]), 12.5 µg/mL (≈ 22.7 µM); against S.aureus Villaluz, 25 µg/mL (≈ 45.5 µM); in the experiment on Proteus morgani 179, 50 µg/mL (≈ 91 µM); in [2] it was 25 µg/mL (≈ 45.5 µM); with E. coli HH 33779, 12.5 µg/mL (≈ 22.7 µM). The ED50 with Klebs.pneumo. 4200 (po, Klebs.pneumo. 4200, p.o.) was found to be 5.5 mg/kg; in the experiment with Klebs.pneumo. 4200 (sc, Klebs.pneumo. 4200, s.c.), 1.5 mg/kg; with E.coli 12140 (setting [8]) it was 9.6 mg/kg; in the experiment on E.coli 12140 (setting [5]), 1.2 mg/kg.
